Assay [1] relates to M tb H37Rv. Kind of assay: microbe, parasite or virus in culture. The class given is cell-based, Mycobacterium tuberculosis. As to conditions: pH 5.2.
The subject of assay [2] is MtbH37Rv pncA-knock out strain. Kind of assay: microbe, parasite or virus in culture. The class given is cell-based, Mycobacterium tuberculosis. The settings on record: pH 6.7.
Assay [3] has as its system MtbH37Rv pncA-knock out strain. Kind of assay: microbe, parasite or virus in culture. The class given is cell-based, Mycobacterium tuberculosis. As to conditions: for MIC: pH 5.2.
Assay [4] relates to M tb H37Rv. Kind of assay: microbe, parasite or virus in culture. The assay is classed as cell-based, Mycobacterium tuberculosis. As to conditions: pH 6.7.
In assay [5] the test system is Vero cells. Kind of assay: Mammalian cell toxicity assay (CellTiter 96 Non-Radioactive Cell Proliferation Assay). The assay is classed as cell-based. The settings on record: read-out: Vero cell IC50.
Assay [6] has as its system Mtb H37Rv-PH-GFP. The class given is cell-based, Mycobacterium tuberculosis. The settings on record: acidic medium (pH 5.2), FIG. 1-3.
Assay [7] relates to Mtb. As to conditions: standard culture conditions; cited from earlier work.
The mark [8] stands for this setting: Mycobacterium tuberculosis, H37RV, read-out: MIC 5.2 WT.
The mark [9] stands for this setting: Mycobacterium tuberculosis, read-out: MIC 6.7 KO.
[10] abbreviates: Mycobacterium tuberculosis, read-out: MIC 5.2 KO.
Where [11] appears, read: Mycobacterium tuberculosis, H37RV, read-out: MIC 6.7 WT.
Setting [12] is: Chlorocebus sabaeus, Vero, 72 h.
Setting [13] is: Chlorocebus sabaeus, Table 1, Vero cells, 72 hours.

Converted amounts (≈) assume the structure as drawn. Read-outs that look alike come from different tables or passages of the source. Where only a bound is given, the exact number is not on record here.

Data on 8 compounds can be found in US11261200B2, “Heteroaryltrifluoroborate compounds for the treatment of mycobacterial infections” (The Global Alliance for TB Drug Development, Inc., priority 2016, dated 2022).

The IC50 is the concentration needed to halve the response being measured.

Turning to `COc1cncc([B-](F)(F)F)n1.[K+]` [Compound 2-5, [trifluoro-(6-methoxypyrazin-2-yl)-boranyl]potassium(1+)], the MIC is reported as 50 µM in assay [1] (read-out: MIC5.2WT), over 200 µM in assay [2] (read-out: MIC6.7KO), 25 µM in assay [3] (read-out: MIC5.2KO) and over 200 µM in assay [4] (read-out: MIC6.7WT). Further, the IC50 in assay [5] (Table 1, Vero cells, 72 hours) was over 100 µM.

Turning to `N#Cc1cncc([B-](F)(F)F)c1` [Compound 11-2, potassium (5-cyanopyridin-3-yl)trifluoroborate], the MIC in assay [1] (setting [8]) is 100 µM; in assay [2] (setting [9]), over 200 µM; in assay [3] (setting [10]), 100 µM; in assay [4] (setting [11]) it was over 200 µM. In addition, the IC50 in assay [5] (setting [12]) is over 100 µM.

Turning to `NNC(=O)c1ccncc1` [Isoniazid (INH), Isoniazid], the “change in internal pH of Mtb” value in assay [6] was “does not have any effect on internal pH”.

For `Fc1cncc([B-](F)(F)F)c1.[K+]` [Compound 4-2, [trifluoro-(5-fluoro-3-pyridyl)-boranyl] potassium(1+)], the MIC is listed as 50 µM in assay [1] (read-out: MIC5.2WT), 100 µM in assay [2] (read-out: MIC6.7KO), 25 µM in assay [3] (read-out: MIC5.2KO) and 200 µM in assay [4] (read-out: MIC6.7WT). For the same compound, the half-maximal inhibitory concentration (IC50) in assay [5] (Table 1, Vero cells, 72 hours) was over 100 µM.

Consider `F[B-](F)(F)c1cncc(Cl)c1.[K+]` [Compound 5-2, [(5-chloro-3-pyridyl)-trifluoro-boranyl] potassium(1+)], for which the MIC in assay [1] (read-out: MIC5.2WT) was determined as 50 µM; in assay [2] (read-out: MIC6.7KO) it was 100 µM; in assay [3] (read-out: MIC5.2KO) it was 50 µM; in assay [4] (read-out: MIC6.7WT), 100 µM. Further, the IC50 in assay [5] (Table 1, Vero cells, 72 hours) is over 100 µM.

As to `FB(F)c1cncc(N2CCCC2)n1` [Compound 7-5, potassium; difluoro-(6-pyrrolidin-1-ylpyrazin-2-yl)borane; fluoride], the MIC in assay [1] (setting [8]) is 100 µM; in assay [2] (setting [9]) it was over 200 µM; in assay [3] (setting [10]), 50 µM; in assay [4] (setting [11]), over 200 µM. Besides, the IC50 in assay [5] (setting [12]) is over 100 µM.

On to `NC(=O)c1cnccn1` [Pyrazinamide (PZA), Pyrazinamide, reference compound], for which the MIC in assay [1] (setting [8]) is 100 µM (≈ 12.3 µg/mL); in assay [1] (Mycobacterium tuberculosis, H37RV, read-out: MIC5.2WT), 100 µM (≈ 12.3 µg/mL); in assay [1] (Mycobacterium tuberculosis, H37RV, read-out: MIC against Mtb at pH 5.2), 100 to 200 µM (≈ 12.3 to 24.6 µg/mL); in assay [2] (setting [9]), over 400 µM; in assay [2] (Mycobacterium tuberculosis, read-out: MIC6.7KO), over 400 µM; in assay [3] (setting [10]), over 400 µM. Also, the MIC in assay [3] (Mycobacterium tuberculosis, read-out: MIC5.2KO) was over 400 µM; in assay [4] (setting [11]) it was over 400 µM; in assay [4] (Mycobacterium tuberculosis, H37RV, read-out: MIC6.7WT), over 400 µM; in assay [4] (Mycobacterium tuberculosis, H37RV, read-out: MIC at pH 6.7) it was over 400 µM. The “activity against pncA KO strain of Mtb” value in assay [3] (result in words) is reported as “not active against an Mtb strain whose pncA is knocked out”. Also, the “minimum inhibitory concentration against Mtb” value in assay [7] is over 200 µM. Besides, the “change in internal pH of Mtb” value in assay [6] is listed as “lowering internal pH of Mtb”. Further, the IC50 is over 100 µM in assay [5] (setting [13]) and over 100 µM in assay [5] (Table 2, Vero cells, 72 hours).

Turning to `F[B-](F)(F)c1cncc(C(F)(F)F)c1` [Compound 12-3, [trifluoro-[5-(trifluoromethyl)-3-pyridyl]-boranyl]potassium(1+)], the MIC in assay [1] (setting [8]) is 100 µM; in assay [2] (setting [9]) it was over 200 µM; in assay [3] (setting [10]), 100 µM; in assay [4] (setting [11]) it was over 200 µM. In addition, the half-inhibitory concentration (IC50) in assay [5] (setting [13]) was over 100 µM.
